Results from ChEMBL document CHEMBL5376003, “Structure-Activity Relationship of FL118 Platform Position 7 Versus Position 9-Derived Compounds and Their Mechanism of Action and Antitumor Activity” (J Med Chem, 2023).
The source made the active and inactive calls. No cut-off for these calls is given here.

What was measured:
[1] = tested on: HCT-116; experiment: Induction of apoptosis in human HCT-116 cells assessed as downregulation of CTPS1 gene expression at 10 to 500 nM incubated for 6 to 48 hrs by RNA analysis; type: functional, cell-based; details: dose 10-500 nM, time 6-48 hrs
[2] = tested on: HCT-116; experiment: Induction of apoptosis in human HCT-116 cells assessed as downregulation of GTF2H1 mRNA expression at 10 to 500 nM incubated for 6 to 48 hrs by RNA analysis; type: functional, cell-based; details: dose 10-500 nM, time 6-48 hrs
[3] = tested on: HCT-116; experiment: Induction of apoptosis in human HCT-116 cells assessed as modulation of TOP3B mRNA expression at 10 to 500 nM incubated for 6 to 48 hrs by RNA analysis; type: functional, cell-based; details: dose 10-500 nM, time 6-48 hrs
[4] = tested on: HCT-116; experiment: Induction of apoptosis in human HCT-116 cells assessed as downregulation of MCL-1 protein expression incubated for 48 hrs by Western blotting analysis; type: functional, cell-based
[5] = tested on: HCT-116; experiment: Induction of apoptosis in human HCT-116 cells assessed as late apoptotic cells at 10 nM incubated for 48 hrs by Annexin V-FITC/PI staining based flow cytometry assay; type: functional
[6] = tested on: HCT-116; experiment: Induction of apoptosis in human HCT-116 cells assessed as upregulation of p21 protein expression incubated for 48 hrs by Western blotting analysis; type: functional, cell-based
[7] = tested on: HCT-116; experiment: Induction of apoptosis in human HCT-116 cells assessed as downregulation of NUP155 gene expression at 10 to 500 nM incubated for 6 to 48 hrs by RNA analysis; type: functional, cell-based; details: dose 10-500 nM, time 6-48 hrs
[8] = tested on: HCT-116; experiment: Induction of apoptosis in human HCT-116 cells assessed as downregulation of NUP85 gene expression at 10 to 500 nM incubated for 6 to 48 hrs by RNA analysis; type: functional, cell-based; details: dose 10-500 nM, time 6-48 hrs
[9] = tested on: PDX14244; experiment: Antitumor activity against human PDX14244 cells xenografted in SCID mouse model assessed as reduction in tumor volume at 8 mg/kg,po administrated once per week for 3 weeks; type: functional, organism-based
[10] = tested on: HCT-116; experiment: Induction of apoptosis in human HCT-116 cells assessed as upregulation of Bax protein expression incubated for 48 hrs by Western blotting analysis; type: functional, cell-based
[11] = tested on: HCT-116; experiment: Induction of apoptosis in human HCT-116 cells assessed as upregulation of cytochrome-C protein expression incubated for 48 hrs by Western blotting analysis; type: functional, cell-based
[12] = tested on: HCT-116; experiment: Induction of apoptosis in human HCT-116 cells assessed as early apoptotic cells at 5 nM incubated for 48 hrs by Annexin V-FITC/PI staining based flow cytometry assay; type: functional
[13] = tested on: HCT-116; experiment: Induction of apoptosis in human HCT-116 cells assessed as increase in caspase-3 activity incubated for 48 hrs by BCA protein assay; type: functional, cell-based
[14] = tested on: HCT-116; experiment: Induction of apoptosis in human HCT-116 cells assessed as downregulation of ADSL gene expression at 10 to 500 nM incubated for 6 to 48 hrs by RNA analysis; type: functional, cell-based; details: dose 10-500 nM, time 6-48 hrs
[15] = tested on: HCT-116; experiment: Induction of apoptosis in human HCT-116 cells assessed as downregulation of NUP98 gene expression at 10 to 500 nM incubated for 6 to 48 hrs by RNA analysis; type: functional, cell-based; details: dose 10-500 nM, time 6-48 hrs
[16] = tested on: HCT-116; experiment: Induction of apoptosis in human HCT-116 cells assessed as downregulation of HK2 gene expression at 10 to 500 nM incubated for 6 to 48 hrs by RNA analysis; type: functional, cell-based; details: dose 10-500 nM, time 6-48 hrs
[17] = tested on: HCT-116; experiment: Induction of apoptosis in human HCT-116 cells assessed as downregulation of TK1 gene expression at 10 to 500 nM incubated for 6 to 48 hrs by RNA analysis; type: functional, cell-based; details: dose 10-500 nM, time 6-48 hrs
[18] = tested on: HCT-116; experiment: Induction of apoptosis in human HCT-116 cells assessed as downregulation of NUP62 gene expression at 10 to 500 nM incubated for 6 to 48 hrs by RNA analysis; type: functional, cell-based; details: dose 10-500 nM, time 6-48 hrs
[19] = tested on: HCT-116; experiment: Induction of apoptosis in human HCT-116 cells assessed as downregulation of AAAS gene expression at 10 to 500 nM incubated for 6 to 48 hrs by RNA analysis; type: functional, cell-based; details: dose 10-500 nM, time 6-48 hrs
[20] = tested on: HCT-116; experiment: Induction of apoptosis in human HCT-116 cells assessed as late apoptotic cells at 2.5 nM incubated for 48 hrs by Annexin V-FITC/PI staining based flow cytometry assay; type: functional
[21] = tested on: HCT-116; experiment: Induction of apoptosis in human HCT-116 cells assessed as upregulation of Bax mRNA expression at 10 to 500 nM incubated for 6 to 48 hrs by RNA analysis; type: functional, cell-based; details: dose 10-500 nM, time 6-48 hrs
[22] = tested on: HCT-116; experiment: Induction of apoptosis in human HCT-116 cells assessed as upregulation of CDKN1A mRNA expression at 10 to 500 nM incubated for 6 to 48 hrs by RNA analysis; type: functional, cell-based; details: dose 10-500 nM, time 6-48 hrs
[23] = tested on: HCT-116; experiment: Growth inhibition of human HCT-116 cells incubated for 48 hrs by MTT reagent based ELISA reader analysis; type: functional, cell-based; details: HCT-116, 48 h
[24] = tested on: Cell membrane; experiment: Induction of mitochondrial membrane potential loss in human HCT-116 cells assessed as ratio of red to green fluorescence intensity at 20 nM incubated for 24 hrs by JC-1 staining based flow cytometry; type: subcellular
[25] = Toxicity in SCID mouse xenografted with human PDX27454 cells assessed as body weight loss at 3 to 5 mg/kg,po administrated once per week for 4 weeks; type: organism-based; details: in vivo, 672 h, dose 3-5 mg/kg
[26] = tested on: PDX27454; experiment: Antitumor activity against human PDX27454 cells xenografted in SCID mouse model assessed as reduction in tumor growth at 3 to 7 mg/kg,po administrated once per week for 4 weeks; type: functional, organism-based; details: dose 3-7 mg/kg
[27] = tested on: HCT-116; experiment: Induction of apoptosis in human HCT-116 cells assessed as downregulation of XIAP protein expression incubated for 48 hrs by Western blotting analysis; type: functional, cell-based
[28] = Toxicity in SCID mouse xenografted with human PDX27454 cells assessed as body weight loss at 7 mg/kg,po administrated once per week for 4 weeks; type: organism-based; details: in vivo, 672 h
[29] = tested on: HCT-116; experiment: Activation of innate immune response in human HCT-116 cells assessed as upregulation of CASP1 gene expression at 10 to 500 nM incubated for 6 to 48 hrs by RNA analysis; type: functional, cell-based; details: dose 10-500 nM, time 6-48 hrs
[30] = tested on: PDX27454; experiment: Antitumor activity against human PDX27454 cells xenografted in SCID mouse model assessed as reduction in tumor growth at 10 mg/kg,po administrated once per week for 4 weeks; type: functional, organism-based
[31] = tested on: PDX27454; experiment: Antitumor activity against human PDX27454 cells xenografted in SCID mouse model assessed as reduction in tumor growth at 15 mg/kg,po administrated once per week for 4 weeks; type: functional, organism-based
[32] = Toxicity in SCID mouse xenografted with human PDX27454 cells assessed as body weight loss at 10 mg/kg,po administrated once per week for 4 weeks; type: organism-based; details: in vivo, 672 h
[33] = Toxicity in SCID mouse xenografted with human PDX27454 cells assessed as body weight loss at 15 mg/kg,ip administrated once per week for 4 weeks; type: organism-based; details: in vivo, 672 h
[34] = tested on: PDX27454; experiment: Antitumor activity against human PDX27454 cells xenografted in SCID mouse model assessed as reduction in tumor growth at 10 mg/kg,ip administrated once per week for 4 weeks; type: functional, organism-based
[35] = tested on: HCT-116; experiment: Induction of apoptosis in human HCT-116 cells assessed as downregulation of ADK gene expression at 10 to 500 nM incubated for 6 to 48 hrs by RNA analysis; type: functional, cell-based; details: dose 10-500 nM, time 6-48 hrs

| Structure (SMILES) | Activity [1] | Activity [2] | Activity [3] | Activity [4] | Activity [7] | Activity [8] | Activity [9] | Activity [14] | Activity [15] | Activity [16] | Activity [17] | Activity [18] | Activity [19] | Activity [21] | Activity [22] | IC50 [23] [nM] | Activity [27] | Activity [29] | further results |
| --- | --- | --- | --- | --- | --- | --- | --- | --- | --- | --- | --- | --- | --- | --- | --- | --- | --- | --- | --- |
| CC[C@@]1(O)C(=O)OCc2c1cc1n(c2=O)Cc2c-1nc1cc3c(cc1c2-c1cc(OC)cc(OC)c1)OCO3 | Active | Active | Active | Active | Active | Active | Active | Active | Active | Active | Active | Active | Active | Active | Active | 99.4 | – | – | Activity [5]: 10.87%; Activity [6]: Dose-Dependent Effect; Activity [10]: Dose-Dependent Effect; Activity [11]: Dose-Dependent Effect; Activity [12]: 26.86%; Activity [13]: Dose-Dependent Effect; Activity [20]: 5.58%; Ratio [24]: 2.62 |
| CC[C@@]1(O)C(=O)OCc2c1cc1n(c2=O)Cc2c-1nc1cc3c(cc1c2-c1ccc(OC)cc1)OCO3 | Active | Active | Active | Active | Active | Active | Active | Active | Active | Active | Active | Active | Active | Active | Active | 17.7 | Active | Active | Activity [25]: Toxic; Activity [26]: Active; Activity [28]: > 20% |
| CCc1ccc(-c2c3c(nc4cc5c(cc24)OCO5)-c2cc4c(c(=O)n2C3)COC(=O)[C@]4(O)CC)cc1 | Active | Active | Active | Active | Active | Active | Active | Active | Active | Active | Active | Active | Active | Active | Active | 55.6 | Active | Active | Activity [30]: Active; Activity [31]: Active; Activity [32]: Toxic; Activity [33]: Non-Toxic; Activity [34]: inactive |
| CC[C@@]1(O)C(=O)OCc2c1cc1n(c2=O)Cc2cc3cc4c(cc3nc2-1)OCO4 | Active | Active | Active | – | Active | Active | – | Active | Active | Active | Active | Active | Active | Active | Active | 23.5 | – | Active | Activity [35]: Active |
